Reference: ChEMBL document CHEMBL1127278, “N-chloromethyl quinuclidinium derivatives: A new class of irreversible ligands for 5-HT3 receptors” (Bioorg Med Chem Lett, 1994)

target: T1, Serotonin 3 (5-HT3) receptor (Rattus norvegicus, UniProt P35563+Q9JJ16); experiment: Binding affinity to 5-hydroxytryptamine 3 receptor in rat entorhinal cortex using [3H]-BRL 43694 as radioligand
T1 sequence (P35563 whole entry): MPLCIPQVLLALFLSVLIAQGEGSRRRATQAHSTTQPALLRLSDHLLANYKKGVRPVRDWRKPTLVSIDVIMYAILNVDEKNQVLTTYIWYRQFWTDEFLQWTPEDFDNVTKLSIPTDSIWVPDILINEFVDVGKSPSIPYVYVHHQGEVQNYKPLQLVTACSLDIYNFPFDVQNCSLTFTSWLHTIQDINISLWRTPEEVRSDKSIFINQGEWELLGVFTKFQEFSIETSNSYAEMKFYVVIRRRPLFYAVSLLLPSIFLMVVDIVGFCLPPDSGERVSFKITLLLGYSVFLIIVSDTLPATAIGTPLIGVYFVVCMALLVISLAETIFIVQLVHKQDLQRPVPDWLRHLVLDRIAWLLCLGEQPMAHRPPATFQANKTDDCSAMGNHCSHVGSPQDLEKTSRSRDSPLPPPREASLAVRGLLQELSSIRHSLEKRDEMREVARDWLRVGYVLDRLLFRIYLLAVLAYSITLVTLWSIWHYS
T1 sequence (Q9JJ16 whole entry): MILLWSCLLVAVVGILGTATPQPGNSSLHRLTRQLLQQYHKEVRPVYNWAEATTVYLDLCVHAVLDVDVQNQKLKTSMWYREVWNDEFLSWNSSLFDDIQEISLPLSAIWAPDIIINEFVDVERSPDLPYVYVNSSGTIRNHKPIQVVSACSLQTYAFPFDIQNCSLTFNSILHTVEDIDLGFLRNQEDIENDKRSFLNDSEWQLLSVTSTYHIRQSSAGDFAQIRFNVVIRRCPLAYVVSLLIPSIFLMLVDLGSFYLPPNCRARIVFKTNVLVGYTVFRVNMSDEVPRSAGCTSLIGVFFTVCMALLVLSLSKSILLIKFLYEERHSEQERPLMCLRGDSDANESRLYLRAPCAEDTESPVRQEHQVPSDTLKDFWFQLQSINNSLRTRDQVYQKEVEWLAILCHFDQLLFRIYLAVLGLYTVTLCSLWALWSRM

| Structure (SMILES) | Ki |
| --- | --- |
| COc1cc(N)c(Cl)cc1C(=O)N[C@@H]1C[N+]2(CCl)CCC1CC2 | 0.0148 µM |
| COc1cc(N)c(Cl)cc1C(=O)N[C@H]1C[N+]2(CCl)CCC1CC2 | 0.0201 µM |
| Nc1ccc2c3c(cccc13)C(=O)N([C@H]1C[N+]3(CCl)CCC1CC3)C2=O | 0.00035 µM |
| Nc1ccc2c3c(cccc13)C(=O)N([C@@H]1C[N+]3(CCl)CCC1CC3)C2=O | 0.328 µM |
